Measured values: ChEMBL document CHEMBL4308841, “Synthesis, in vitro antiproliferative activity, and kinase inhibitory effects of pyrazole-containing diarylureas and diarylamides” (Eur J Med Chem, 2018)

Columns and labels:
SF-539 [1] = assay: Growth inhibition of human SF539 cells incubated for 48 hrs by sulforhodamine B assay; format: functional, cell-based; details: SF-539, 48 h
M14 = assay: Growth inhibition of human M14 cells assessed as cell growth at 10 uM incubated for 48 hrs by sulforhodamine B assay relative to control; format: functional; details: M14, 48 h, read-out: Activity
OVCAR-5 = assay: Growth inhibition of human OVCAR5 cells incubated for 48 hrs by sulforhodamine B assay; format: functional, cell-based; details: OVCAR-5, 48 h
KM12 = assay: Growth inhibition of human KM12 cells assessed as cell growth at 10 uM incubated for 48 hrs by sulforhodamine B assay relative to control; format: functional; details: KM12, 48 h, read-out: Activity
MCF7 = assay: Growth inhibition of human MCF7 cells assessed as cell growth at 0.1 uM incubated for 48 hrs by sulforhodamine B assay relative to control; format: functional; details: MCF7, 48 h, read-out: Activity
COLO 205 [2] = assay: Growth inhibition of human COLO205 cells assessed as cell growth at 0.01 uM incubated for 48 hrs by sulforhodamine B assay relative to control; format: functional; details: COLO 205, 48 h, read-out: Activity
CCRF-CEM = assay: Growth inhibition of human CCRF-CEM cells assessed as cell growth at 10 uM incubated for 48 hrs by sulforhodamine B assay relative to control; format: functional; details: read-out: Activity
NCI-H460 = assay: Growth inhibition of human NCI-H460 cells assessed as cell growth at 10 uM incubated for 48 hrs by sulforhodamine B assay relative to control; format: functional; details: NCI-H460, 48 h, read-out: Activity
SK-MEL-28 = assay: Growth inhibition of human SK-MEL-28 cells assessed as cell growth at 10 uM incubated for 48 hrs by sulforhodamine B assay relative to control; format: functional; details: SK-MEL-28, 48 h, read-out: Activity
Malme-3M = assay: Growth inhibition of human MALME-3M cells assessed as cell growth at 10 uM incubated for 48 hrs by sulforhodamine B assay relative to control; format: functional; details: read-out: Activity
BT-549 = assay: Growth inhibition of human BT549 cells assessed as cell growth at 10 uM incubated for 48 hrs by sulforhodamine B assay relative to control; format: functional; details: BT-549, 48 h, read-out: Activity
PC-3 = assay: Growth inhibition of human PC3 cells assessed as cell growth at 10 uM incubated for 48 hrs by sulforhodamine B assay relative to control; format: functional; details: PC-3, 48 h, read-out: Activity
COLO 205 [3] = assay: Growth inhibition of human COLO205 cells assessed as cell growth at 0.1 uM incubated for 48 hrs by sulforhodamine B assay relative to control; format: functional; details: COLO 205, 48 h, read-out: Activity
OVCAR-3 = assay: Growth inhibition of human OVCAR3 cells assessed as cell growth at 0.1 uM incubated for 48 hrs by sulforhodamine B assay relative to control; format: functional; details: OVCAR-3, 48 h, read-out: Activity
UACC-257 = assay: Growth inhibition of human UACC257 cells assessed as cell growth at 0.1 uM incubated for 48 hrs by sulforhodamine B assay relative to control; format: functional; details: UACC-257, 48 h, read-out: Activity
LOX IMVI = assay: Growth inhibition of human LOXIMVI cells assessed as cell growth at 10 uM incubated for 48 hrs by sulforhodamine B assay relative to control; format: functional; details: read-out: Activity
COLO 205 [4] = assay: Growth inhibition of human COLO205 cells assessed as cell growth at 10 uM incubated for 48 hrs by sulforhodamine B assay relative to control; format: functional; details: COLO 205, 48 h, read-out: Activity
A498 = assay: Growth inhibition of human A498 cells assessed as cell growth at 0.1 uM incubated for 48 hrs by sulforhodamine B assay relative to control; format: functional; details: A498, 48 h, read-out: Activity
MDA-MB-231 [5] = assay: Growth inhibition of human MDA-MB-231 cells assessed as cell growth at 10 uM incubated for 48 hrs by sulforhodamine B assay relative to control; format: functional; details: MDA-MB-231, 48 h, read-out: Activity
UO-31 = assay: Growth inhibition of human UO31 cells assessed as cell growth at 10 uM incubated for 48 hrs by sulforhodamine B assay relative to control; format: functional; details: UO-31, 48 h, read-out: Activity
U-251 = assay: Growth inhibition of human U251 cells assessed as cell growth at 1 uM incubated for 48 hrs by sulforhodamine B assay relative to control; format: functional; details: U-251, 48 h, read-out: Activity
MDA-MB-468 = assay: Growth inhibition of human MDA-MB-468 cells assessed as cell growth at 10 uM incubated for 48 hrs by sulforhodamine B assay relative to control; format: functional; details: MDA-MB-468, 48 h, read-out: Activity
NCI-H23 = assay: Growth inhibition of human NCI-H23 cells assessed as cell growth at 10 uM incubated for 48 hrs by sulforhodamine B assay relative to control; format: functional; details: NCI-H23, 48 h, read-out: Activity
MDA-MB-231 [6] = assay: Growth inhibition of human MDA-MB-231 cells incubated for 48 hrs by sulforhodamine B assay; format: functional, cell-based; details: MDA-MB-231, 48 h
HCT-116 = assay: Growth inhibition of human HCT116 cells assessed as cell growth at 10 uM incubated for 48 hrs by sulforhodamine B assay relative to control; format: functional; details: HCT-116, 48 h, read-out: Activity
SK-MEL-5 = assay: Growth inhibition of human SK-MEL-5 cells assessed as cell growth at 10 uM incubated for 48 hrs by sulforhodamine B assay relative to control; format: functional; details: SK-MEL-5, 48 h, read-out: Activity
HCT-15 = assay: Growth inhibition of human HCT15 cells assessed as cell growth at 10 uM incubated for 48 hrs by sulforhodamine B assay relative to control; format: functional; details: HCT-15, 48 h, read-out: Activity
K562 = assay: Growth inhibition of human K562 cells assessed as cell growth at 10 uM incubated for 48 hrs by sulforhodamine B assay relative to control; format: functional; details: K562, 48 h, read-out: Activity
SF-539 [7] = assay: Growth inhibition of human SF539 cells assessed as cell growth at 10 uM incubated for 48 hrs by sulforhodamine B assay relative to control; format: functional; details: SF-539, 48 h, read-out: Activity
HOP-62 = assay: Growth inhibition of human HOP62 cells assessed as cell growth at 10 uM incubated for 48 hrs by sulforhodamine B assay relative to control; format: functional; details: HOP-62, 48 h, read-out: Activity
NCI-H322M = assay: Growth inhibition of human NCI-H322M cells assessed as cell growth at 10 uM incubated for 48 hrs by sulforhodamine B assay relative to control; format: functional; details: read-out: Activity
[8] = read-out: LC50 (the source's name)
[9] = read-out: pLC50 (the source's name) (converted)

## COc1cc(Cl)cc(-c2nn(-c3cccc(NC(=O)c4ccc(N5CCOCC5)c(C(F)(F)F)c4)c3)cc2-c2ccncc2)c1
SF-539 [1]; read-out: GI50
  GI50: 3.74 µM
SF-539 [1]; [8]
  CC50: > 100 µM
SF-539 [1]; read-out: TGI
  TGI: > 100 µM
SF-539 [1]; read-out: pGI50 (converted)
  GI50: 3.72 µM
SF-539 [1]; [9]
  CC50: > 100 µM
SF-539 [1]; read-out: pTGI (converted)
  TGI: > 100 µM
M14
  growth at 10 µM: 56.7%
OVCAR-5; read-out: GI50
  GI50: 3.25 µM
OVCAR-5; [8]
  CC50: > 100 µM
OVCAR-5; read-out: TGI
  TGI: > 100 µM
OVCAR-5; read-out: pGI50 (converted)
  GI50: 32.4 µM
OVCAR-5; [9]
  CC50: > 100 µM
OVCAR-5; read-out: pTGI (converted)
  TGI: > 100 µM
KM12
  growth at 10 µM: 38.4%
MCF7
  growth at 0.1 µM: 92%
COLO 205 [2]
  growth at 0.01 µM: 103%
CCRF-CEM
  growth at 10 µM: 31.7%
NCI-H460
  growth at 10 µM: 29.3%
SK-MEL-28
  growth at 10 µM: 53.2%
Malme-3M
  growth at 10 µM: 57.9%
BT-549
  growth at 10 µM: 73%
PC-3
  growth at 10 µM: 29.1%
COLO 205 [3]
  growth at 0.1 µM: 100%
OVCAR-3
  growth at 0.1 µM: 107%
UACC-257
  growth at 0.1 µM: 97%
LOX IMVI
  growth at 10 µM: 47.3%
COLO 205 [4]
  growth at 10 µM: 52.7%
A498
  growth at 0.1 µM: 85%
MDA-MB-231 [5]
  growth at 10 µM: 11.4%
UO-31
  growth at 10 µM: 40.7%
U-251
  growth at 1 µM: 78%
MDA-MB-468
  growth at 10 µM: 50.2%
NCI-H23
  growth at 10 µM: 79%
MDA-MB-231 [6]; read-out: GI50
  GI50: 2.53 µM
MDA-MB-231 [6]; [8]
  CC50: > 100 µM
MDA-MB-231 [6]; read-out: TGI
  TGI: 32.4 µM
MDA-MB-231 [6]; read-out: pGI50 (converted)
  GI50: 2.82 µM
MDA-MB-231 [6]; [9]
  CC50: > 100 µM
MDA-MB-231 [6]; read-out: pTGI (converted)
  TGI: 32.4 µM
HCT-116
  growth at 10 µM: 47.8%
SK-MEL-5
  growth at 10 µM: 71.5%
HCT-15
  growth at 10 µM: 17.2%
K562
  growth at 10 µM: 4.03%
SF-539 [7]
  growth at 10 µM: 52.1%
HOP-62
  growth at 10 µM: 52.1%
NCI-H322M
  growth at 10 µM: 89.6%
